According to the NIST ThermoML archive (doi:10.1021/je050050p):

Assay: xn = mol fraction of the nth substance listed
Settings: Liquid, Vibrating tube method

CN(C)C=O [dimethylformamide] + O=C=O
Settings | mass density [kg/m3]
332.98 K, 14003 kPa, x2 = 0.4268 | 937.07
332.98 K, 14011 kPa, x2 = 0.9311 | 761.83
332.98 K, 15006 kPa, x2 = 0.4268 | 938.28
332.98 K, 15009 kPa, x2 = 0.9311 | 776.41
332.98 K, 16024 kPa, x2 = 0.4268 | 939.46
332.98 K, 16030 kPa, x2 = 0.9311 | 789.22
332.98 K, 17017 kPa, x2 = 0.9311 | 800.11
332.98 K, 17036 kPa, x2 = 0.4268 | 940.67
332.98 K, 18002 kPa, x2 = 0.9311 | 809.93
332.98 K, 18017 kPa, x2 = 0.4268 | 941.85
332.98 K, 19025 kPa, x2 = 0.4268 | 943
332.98 K, 19031 kPa, x2 = 0.9311 | 819.29
332.98 K, 20004 kPa, x2 = 0.4268 | 944.1
332.98 K, 20025 kPa, x2 = 0.9311 | 827.57
332.98 K, 21001 kPa, x2 = 0.4268 | 945.19
332.98 K, 21030 kPa, x2 = 0.9311 | 835.37
332.98 K, 21993 kPa, x2 = 0.4268 | 946.33
332.98 K, 21994 kPa, x2 = 0.9311 | 842.35
332.98 K, 22998 kPa, x2 = 0.9311 | 849.15
332.98 K, 23015 kPa, x2 = 0.4268 | 947.45
332.98 K, 24024 kPa, x2 = 0.9311 | 855.75
332.98 K, 24114 kPa, x2 = 0.4268 | 948.62
332.98 K, 25011 kPa, x2 = 0.9311 | 861.78
332.98 K, 25061 kPa, x2 = 0.4268 | 949.68
332.99 K, 6007 kPa, x2 = 0.2876 | 926.13
332.99 K, 6998 kPa, x2 = 0.2876 | 927.15
332.99 K, 7991 kPa, x2 = 0.2876 | 928.18
332.99 K, 9011 kPa, x2 = 0.4461 | 930.78
332.99 K, 9021 kPa, x2 = 0.2876 | 929.22
332.99 K, 9993 kPa, x2 = 0.4461 | 931.95
332.99 K, 10024 kPa, x2 = 0.2876 | 930.23
332.99 K, 11006 kPa, x2 = 0.2876 | 931.19
332.99 K, 11013 kPa, x2 = 0.4461 | 933.65
332.99 K, 12003 kPa, x2 = 0.4461 | 934.9
332.99 K, 12020 kPa, x2 = 0.2876 | 932.19
332.99 K, 13012 kPa, x2 = 0.4461 | 936.18
332.99 K, 13024 kPa, x2 = 0.2876 | 933.16
332.99 K, 13991 kPa, x2 = 0.4461 | 937.43
332.99 K, 14028 kPa, x2 = 0.2876 | 934.12
332.99 K, 15009 kPa, x2 = 0.4461 | 938.71
332.99 K, 15010 kPa, x2 = 0.2876 | 935.07
332.99 K, 16010 kPa, x2 = 0.2876 | 936.01
332.99 K, 16010 kPa, x2 = 0.4461 | 939.93
332.99 K, 17001 kPa, x2 = 0.4461 | 941.16
332.99 K, 17003 kPa, x2 = 0.2876 | 936.96
332.99 K, 17994 kPa, x2 = 0.4461 | 942.35
332.99 K, 18005 kPa, x2 = 0.2876 | 937.87
332.99 K, 18988 kPa, x2 = 0.4461 | 943.52
332.99 K, 19008 kPa, x2 = 0.2876 | 938.78
332.99 K, 20001 kPa, x2 = 0.4461 | 944.69
332.99 K, 20007 kPa, x2 = 0.2876 | 939.69
332.99 K, 20995 kPa, x2 = 0.4461 | 945.88
332.99 K, 21004 kPa, x2 = 0.2876 | 940.6
332.99 K, 21990 kPa, x2 = 0.2876 | 941.48
332.99 K, 21998 kPa, x2 = 0.4461 | 947.03
332.99 K, 23023 kPa, x2 = 0.4461 | 948.19
332.99 K, 23037 kPa, x2 = 0.2876 | 942.42
332.99 K, 23982 kPa, x2 = 0.4461 | 949.27
332.99 K, 24000 kPa, x2 = 0.2876 | 943.28
332.99 K, 24996 kPa, x2 = 0.2876 | 944.13
332.99 K, 25021 kPa, x2 = 0.4461 | 950.44
333 K, 7019 kPa, x2 = 0.4502 | 928.11
333 K, 8001 kPa, x2 = 0.4502 | 929.45
333 K, 8029 kPa, x2 = 0.4068 | 930.01
333 K, 9015 kPa, x2 = 0.4502 | 930.81
333 K, 9016 kPa, x2 = 0.4068 | 931.23
333 K, 10008 kPa, x2 = 0.4068 | 932.42
333 K, 10013 kPa, x2 = 0.4502 | 932.14
333 K, 11006 kPa, x2 = 0.4502 | 933.42
333 K, 11025 kPa, x2 = 0.4068 | 933.65
333 K, 12004 kPa, x2 = 0.4502 | 934.74
333 K, 12006 kPa, x2 = 0.4068 | 934.81
333 K, 13019 kPa, x2 = 0.4068 | 936.04
333 K, 13021 kPa, x2 = 0.4502 | 936.04
333 K, 14010 kPa, x2 = 0.4068 | 937.15
333 K, 14019 kPa, x2 = 0.4502 | 937.31
333 K, 15001 kPa, x2 = 0.4502 | 938.54
333 K, 15002 kPa, x2 = 0.4068 | 938.28
333 K, 16010 kPa, x2 = 0.4068 | 939.41
333 K, 16014 kPa, x2 = 0.4502 | 939.78
333 K, 16998 kPa, x2 = 0.4068 | 940.54
333 K, 17013 kPa, x2 = 0.4502 | 941.01
333 K, 18013 kPa, x2 = 0.4068 | 941.67
333 K, 18021 kPa, x2 = 0.4502 | 942.21
333 K, 19006 kPa, x2 = 0.4502 | 943.4
333 K, 19008 kPa, x2 = 0.4068 | 942.75
333 K, 20008 kPa, x2 = 0.4068 | 943.81
333 K, 20021 kPa, x2 = 0.4502 | 944.58
333 K, 20981 kPa, x2 = 0.4068 | 944.88
333 K, 21001 kPa, x2 = 0.4502 | 945.74
333 K, 22001 kPa, x2 = 0.4068 | 945.96
333 K, 22027 kPa, x2 = 0.4502 | 946.9
333 K, 22996 kPa, x2 = 0.4068 | 947.02
333 K, 23019 kPa, x2 = 0.4502 | 948.04
333 K, 24013 kPa, x2 = 0.4068 | 948.07
333 K, 24013 kPa, x2 = 0.4502 | 949.18
333 K, 25001 kPa, x2 = 0.4068 | 949.09
333 K, 25015 kPa, x2 = 0.4502 | 950.28
342.89 K, 10992 kPa, x2 = 0.6235 | 886.15
342.89 K, 12012 kPa, x2 = 0.6235 | 889.74
342.89 K, 13020 kPa, x2 = 0.6235 | 893.05
342.89 K, 14010 kPa, x2 = 0.6235 | 896.16
342.89 K, 15018 kPa, x2 = 0.6235 | 899.25
342.89 K, 16005 kPa, x2 = 0.6235 | 902.14
342.89 K, 17023 kPa, x2 = 0.6235 | 905.02
342.89 K, 18015 kPa, x2 = 0.6235 | 907.74
342.89 K, 19032 kPa, x2 = 0.6235 | 910.42
342.89 K, 20044 kPa, x2 = 0.6235 | 913.05
342.89 K, 21008 kPa, x2 = 0.6235 | 915.46
342.89 K, 21997 kPa, x2 = 0.6235 | 917.87
342.89 K, 23022 kPa, x2 = 0.6235 | 920.31
342.89 K, 24005 kPa, x2 = 0.6235 | 922.57
342.89 K, 25050 kPa, x2 = 0.6235 | 924.92
342.92 K, 9047 kPa, x2 = 0.4268 | 916.56
342.92 K, 10045 kPa, x2 = 0.4268 | 917.97
342.92 K, 11042 kPa, x2 = 0.4268 | 919.28
342.92 K, 12037 kPa, x2 = 0.4268 | 920.66
342.92 K, 13020 kPa, x2 = 0.4268 | 921.93
342.92 K, 13997 kPa, x2 = 0.4268 | 923.27
342.92 K, 14981 kPa, x2 = 0.4268 | 924.53
342.92 K, 15034 kPa, x2 = 0.9311 | 711.76
342.92 K, 15061 kPa, x2 = 0.8091 | 832.64
342.92 K, 15988 kPa, x2 = 0.8091 | 839.54
342.92 K, 15991 kPa, x2 = 0.4268 | 925.79
342.92 K, 16002 kPa, x2 = 0.9311 | 729.81
342.92 K, 17002 kPa, x2 = 0.4268 | 927.11
342.92 K, 17015 kPa, x2 = 0.9311 | 745.62
342.92 K, 17027 kPa, x2 = 0.8091 | 845.55
342.92 K, 18016 kPa, x2 = 0.8091 | 851.1
342.92 K, 18024 kPa, x2 = 0.9311 | 759.3
342.92 K, 18025 kPa, x2 = 0.4268 | 928.36
342.92 K, 19002 kPa, x2 = 0.9311 | 770.95
342.92 K, 19028 kPa, x2 = 0.8091 | 856.53
342.92 K, 19044 kPa, x2 = 0.4268 | 929.6
342.92 K, 19999 kPa, x2 = 0.4268 | 930.83
342.92 K, 20000 kPa, x2 = 0.9311 | 781.74
342.92 K, 20057 kPa, x2 = 0.8091 | 861.77
342.92 K, 20984 kPa, x2 = 0.4268 | 931.96
342.92 K, 21012 kPa, x2 = 0.8091 | 866.52
342.92 K, 21034 kPa, x2 = 0.9311 | 791.87
342.92 K, 21992 kPa, x2 = 0.8091 | 871.08
342.92 K, 22002 kPa, x2 = 0.4268 | 933.2
342.92 K, 22002 kPa, x2 = 0.9311 | 800.53
342.92 K, 22999 kPa, x2 = 0.8091 | 875.54
342.92 K, 23014 kPa, x2 = 0.9311 | 809.02
342.92 K, 23042 kPa, x2 = 0.4268 | 934.44
342.92 K, 23981 kPa, x2 = 0.4268 | 935.53
342.92 K, 24017 kPa, x2 = 0.9311 | 816.82
342.92 K, 24029 kPa, x2 = 0.8091 | 879.9
342.92 K, 25008 kPa, x2 = 0.9311 | 824.06
342.92 K, 25020 kPa, x2 = 0.8091 | 883.99
342.92 K, 25047 kPa, x2 = 0.4268 | 936.75
342.93 K, 7012 kPa, x2 = 0.2876 | 914.85
342.93 K, 7999 kPa, x2 = 0.2876 | 915.95
342.93 K, 9007 kPa, x2 = 0.2876 | 917.04
342.93 K, 10005 kPa, x2 = 0.2876 | 918.13
342.93 K, 11003 kPa, x2 = 0.2876 | 919.16
342.93 K, 12011 kPa, x2 = 0.2876 | 920.23
342.93 K, 13016 kPa, x2 = 0.2876 | 921.27
342.93 K, 14012 kPa, x2 = 0.2876 | 922.31
342.93 K, 15013 kPa, x2 = 0.2876 | 923.35
342.93 K, 16000 kPa, x2 = 0.2876 | 924.33
342.93 K, 17024 kPa, x2 = 0.2876 | 925.34
342.93 K, 18001 kPa, x2 = 0.2876 | 926.31
342.93 K, 19036 kPa, x2 = 0.2876 | 927.32
342.93 K, 20015 kPa, x2 = 0.2876 | 928.27
342.93 K, 21009 kPa, x2 = 0.2876 | 929.23
